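Values below derive from 48-hour exposures of cells grown in 96-well plates, with endpoints linearly interpolated between the two concentrations bracketing the appropriate inhibition level. The concentration for full growth arrest is given as TGI.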
How the values were obtained:
Assay in all cases: NCI-60 cell line screen, 48 h
[1] = tested on: A549 NSCLC
[2] = tested on: ACHN renal
[3] = tested on: CCRF-CEM leukemia
[4] = tested on: COLO 205 colon
[5] = tested on: IGROV1 ovarian
[6] = tested on: K-562 leukemia
[7] = tested on: LOX IMVI melanoma
[8] = tested on: NCI-H226 lung
[9] = tested on: NCI-H460 lung
[10] = tested on: OVCAR-3 ovarian
[11] = tested on: OVCAR-4 ovarian
[12] = tested on: OVCAR-5 ovarian
[13] = tested on: OVCAR-8 ovarian
[14] = tested on: RPMI-8226 leukemia
[15] = tested on: SF-295 CNS
[16] = tested on: SK-MEL-2 melanoma
[17] = tested on: SK-OV-3 ovarian
[18] = tested on: SN12C renal
[19] = tested on: SNB-19 CNS
[20] = tested on: SW-620 colon

Row | SMILES | TGI [1] | TGI [2] | TGI [3] | TGI [4] | TGI [5] | TGI [6] | TGI [7] | TGI [8] | TGI [9] | TGI [10] | TGI [11] | TGI [12] | TGI [13] | TGI [14] | TGI [15] | TGI [16] | TGI [17] | TGI [18] | TGI [19] | TGI [20]
1 | CC(C)N=C(N)NC#N | > 100 µM | > 100 µM | > 100 µM | > 100 µM | > 100 µM | > 100 µM | > 100 µM | > 100 µM | > 100 µM | > 100 µM | > 100 µM | > 100 µM | > 100 µM | > 100 µM | > 100 µM | > 100 µM | > 100 µM | > 100 µM | > 100 µM | > 100 µM
2 | COc1cc(-c2cc(=O)c3c(O)c(CC=C(C)C)c(O)cc3o2)ccc1O | > 50 µM | > 50 µM | > 50 µM | > 50 µM | > 50 µM | > 50 µM | > 50 µM | > 50 µM | > 50 µM | > 50 µM | 43.6 µM | > 50 µM | > 50 µM | 36.3 µM | 31.2 µM | > 50 µM | > 50 µM | > 50 µM | > 50 µM | > 50 µM

From PubChem BioAssay (NCI)
